In US20240116928A1 (Gilead Sciences, Inc., priority 2022, published 2024):

Assays:
CD73 [1] = target: T1, CD73 (Homo sapiens, UniProt P21589); assay: CD73 Biochemical IC50 Assay; conditions: CD73 enzyme (R&D system) final 0.3 nM, final AMP 15 uM, 60 mins incubation, Rapid fire
T1 sequence (P21589 27-549): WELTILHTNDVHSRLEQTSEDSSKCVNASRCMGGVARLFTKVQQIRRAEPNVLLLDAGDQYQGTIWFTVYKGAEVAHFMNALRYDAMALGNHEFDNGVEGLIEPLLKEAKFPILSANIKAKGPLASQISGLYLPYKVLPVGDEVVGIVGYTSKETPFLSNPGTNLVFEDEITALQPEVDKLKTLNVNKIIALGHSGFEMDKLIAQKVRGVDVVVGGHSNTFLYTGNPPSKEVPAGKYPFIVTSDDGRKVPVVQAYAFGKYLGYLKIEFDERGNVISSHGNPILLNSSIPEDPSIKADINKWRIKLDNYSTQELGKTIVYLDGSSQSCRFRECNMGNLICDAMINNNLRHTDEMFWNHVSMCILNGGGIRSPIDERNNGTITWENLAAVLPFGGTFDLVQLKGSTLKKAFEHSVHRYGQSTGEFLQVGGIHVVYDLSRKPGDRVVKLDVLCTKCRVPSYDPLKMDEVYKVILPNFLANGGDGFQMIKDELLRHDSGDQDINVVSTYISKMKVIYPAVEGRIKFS
Method: CD73 Biochemical IC50 Assay
Compound serial dilutions were pre-spotted into Thermo Nunc assay plate. 50 μL CD73 enzyme buffer (CD73 purchased from R&D system=0.6 nM, 25 mM Tris, pH 7.4, 5 mM MgCl2, 1 mM NaH2PO4) was added into the assay plate and incubated for 15 mins. […] After incubation for 60 mins, the supernatant 20 uL was transferred into 384-well NUNC plate pre-filled with 60 ul Quench buffer (80% organic and 20% water+0.1% FA) with internal standard. The plate was spun down at 4500 rpm for 20 mins, then 20 μl of supernatant was transferred to another Nunc plate prefilled with 80 μl of water. The samples were run using Rapid fire.

CD73 [2] = target: T1, CD73; assay: MDA-MB-231 Cell Based CD73 Activity Assay (DMEM); parameters: endogenous in cells; host or cells: MDA-MB-231-GFP; conditions: MDA-MB-231-GFP cells, DMEM with 10% human plasma, overnight compound treatment, 200 uM AMP, 100 mins
Method: Cells were plated into assay plate with compounds pre-spotted, for an overnight compound treatment. 50 uL of 400 uM AMP (final concentration will be 200 uM) was added using Bio-tek dispenser. Plates were incubated for 100 mins. 20 uL of supernatant was transferred into 384-well NUNC plate pre-filled with 60 ul Quench buffer (80% organic and 20% water+0.1% FA) with internal standard. The plates were spun down at 4500 rpm for 20 mins, then 20 ul of supernatant was transferred to another Nunc plate prefilled with 80 ul of water. The samples were analyzed using Rapid fire.

IC50 (CD73 [1])	EC50 (CD73 [2])	SMILES
7.16 nM	6.38 nM	Cc1nc(-c2c[nH]c(=O)[nH]c2=O)cc(N2C[C@H](Oc3cc4c(cn3)c(C)nn4CC(F)(F)F)C(F)(F)C2)n1 [Example 28, (S)-6-(3,3-difluoro-4-((3-methyl-1-(2,2,2-trifluoroethyl)-1H-pyrazolo[4,3-c]pyridin-6-yl)oxy)pyrrolidin-1-yl)-2-methyl-[4,5′-bipyrimidine]-2′,4′ (1′H,3′H)-dione]
5.7 nM	32.9 nM	Cc1nc(-c2c[nH]c(=O)[nH]c2=O)cc(N2C[C@H](Oc3ccnc(C(F)(F)F)c3)C(F)(F)C2)n1 [Example 18, (S)-6-(3,3-difluoro-4-((2-(trifluoromethyl)pyridin-4-yl)oxy)pyrrolidin-1-yl)-2-methyl-[4,5′-bipyrimidine]-2′,4′ (1′ H,3′ H)-dione]
